Test results reported in EP2746253A1, “Novel compounds with skin lightening properties” (Unilever PLC, priority 2012, dated 2014).

Legend:
Melanoderms™ = experiment: Pigment production by Living Skin Equivalents (Melanoderms); assay type: cell-based; conditions: Homo sapiens, 336 h, 14 days, normalized to protein levels, read-out: Inhibition of melanin production (%) in Melanoderms™ compared to control
Excerpt: So called reconstructed pigmented 'skin' cultures containing keratinocytes and melanocytes are commercially available and for example can be purchased from MatTek Corp, 200, Homer Avenue, Ashland, MA, USA, under the trade name Melanoderm™. Melanoderms™ (catalogue reference MEL-300) containing melanocytes from […] donor skin were maintained in EPI-100-NMM113 media following the manufacturer's instructions and using standard methods for the maintenance of cultured mammalian cells under aseptic conditions. The Melanoderm™ cultures were treated with test agents for a total of 14 days. During the 14 day culture period the melanocytes in the Melanoderm™ cultures synthesise melanin in specialised vesicular structures called melanosomes. The pigmented melanosomes are transferred to the adjacent keratinocytes and the transferred-melanosomes tend to accumulate over the nucleus of the keratinocytes. This process is the same as occurs in skin in vivo and accordingly the Melanoderm™ culture is considered to be a very good test 'skin tissue' to mimic the effect of the skin pigmentation process in vivo. A compound that leads to a reduction in melanin production in the Melanoderm™ culture over 14 days by 10 % or more is considered to have a positive pigment reducing effect. It is important that the reduction in pigment occurs without substantive loss of cell viability such that the inhibitory effect of the test compound is due to its biological function rather than due to cell toxicity.
Culture media changes and re-dosing of compounds at selected concentrations took place every 2 or 3 days during the test period. Melanoderm™ cultures were also treated with control materials including the vehicle (dimethylsulphoxide; DMSO) used to dissolve the test material and a positive control material known to lead to the synthesis of reduced amounts of melanin in the cultures. Ketoconazole and/or 4-ethylresorcinol were used as positive controls. After 14 days culture, transmitted-light microscopy images were captured for every culture using a Leica DM IL microscope at x20 magnification.
The cell viability of the cultures was assessed using the so called WST-1 (Water Soluble Tetrazolium Salt -1) assay purchased from Roche Applied Science and following the manufacturer's instructions. The stable tetrazolium salt WST-1 is cleaved to a soluble formazan dye by a complex cellular mechanism that occurs primarily at the cell surface. This bioreduction is largely dependent on the glycolytic production of NADPH in viable cells. Therefore, the amount of soluble formazan dye formed in the culture medium directly correlates to the number of metabolically active cells in the culture. Cultures were incubated with WST-1 in the medium for 1 hour and production of formazan measured at 450 nm using a spectrophotometer plate reader, eg a BMG Labtech FLUOstar plate reader. Cultures were considered 'viable' if they generated greater than 80 % of the control value of formazan product. Subsequently the culture was washed briefly in phosphate buffer solution (PBS) and total melanin and protein extracted together from each culture using 250 µl Solvable (trademark, Perkin Elmer product 6NE9100) reagent at 60°C overnight as recommended by the manufacturer. The total protein content using a sample of the extracts was determined using the so called BCA (bicinchoninic acid) assay. The BCA assay may be purchased from Pierce Chemical Company and conducted following the manufacturer's instructions. Melanin was determined by measuring the absorbance at 485 nm, for example using a BMG Labtech FLUOstar plate reader. The amount of melanin extracted from each culture was determined by reference to a standard synthetic-melanin curve (Sigma Aldrich Chemical Co; catalogue reference M8631).
Melanin levels in each culture were expressed as values normalised to the amount of protein in the cultures and compared to control vehicle treated cultures. […]

B16 mouse melanoma cells = experiment: Inhibition of pigment (melanin) production in B16 mouse melanoma cells; assay type: cell-based; conditions: 72 h, 3 days incubation, average of 4 wells, read-out: % of melanin inhibition in B16 mouse melanoma cells assay compared to control, normalised to protein levels
Excerpt: B16 mouse melanoma cells are widely available for example by purchase from the American Type Culture Collection (ATCC) and are routinely used by those skilled in the art to assay pigment production. The cells make and secrete melanin, a dark pigment, into the medium as the cells approach confluence. Methods for general cell culture may be easily accessed in text books and on-line (eg General Techniques of Cell Culture; M.A. Harrison and I.F. Rae Authors; Cambridge University Press ISBN 052157496X)
B16 mouse melanoma cells were maintained in cell culture and used for tests in antibiotic free Lonza Biowhittaker (BE12-662F) media (50ml fetal bovine serum and 5 ml I-glutamine (Sigma G7513) per 500 ml bottle).
The cells were maintained and grown at 37°C in an atmosphere of 5 % CO2. Trypsin/ethylene diamine tetraacetic acid (EDTA; Sigma T3924) and Dulbeccos Phosphate Buffered Saline (DPBS; Sigma D8537) were used to passage the cells as they approached ≥80 % confluence, diluting the cells by one tenth for maintenance culture.
For the pigment reduction assays, 48 well plates were seeded with 2.5 x 10^4 cells per well in phenol red-free, antibiotic-free medium (Sigma D1145) supplemented with foetal bovine serum and glutamine. Care was taken to make sure less adherent cells were not lost during the seeding process.
The plates were incubated overnight at 37°C/5 % CO2 atmosphere. The media was removed from the plates one-by-one and fresh media containing the test compound or control additions was added to each well. Compounds were prepared as stock solutions at 1000 fold higher concentration than that used for assay in dimethylsulphoxide (DMSO). Control media additions included 0.1 % DMSO, media alone and positive control(s) known to inhibit pigment production such as ketoconazole or 4-ethylresorcinol. The cells were incubated at 37°C/5 % CO2 atmosphere for a further 3 days. Cultures were assessed for melanin secretion into the medium and, as controls for toxicity of the added ingredients, for protein level and metabolic activity. A reduction in metabolic activity or protein levels is indicative of cell toxicity. The most desirable compounds therefore in the assay are those that show melanin production inhibition without loss of metabolic function or reduction in protein levels.
Media was removed from the cell plates and put into storage plates. The plates were sealed until assayed later in the day. Melanin was measured by determining optical density at 450 nm and making a comparison against melanin standards (Sigma M8631) made up anew on each day of testing. The standards used were 1000 µg/ml; 500 µg/ml; 250 µg/ml; 125 µg/ml; 62.5 µg/ml; 31.25 µg/ml; and 15.625 µg/ml.
Without delay, 100 µl of RIPA buffer (Sigma R0278) with protease inhibitor (Sigma S8830- use as per Sigma instructions) was added to the wells and the plates frozen at -20°C until the protein assessment was carried out. For example Pierce BCA Protein Assay (Thermo Scientific # 23225) can be used as per manufacturer's instructions with 10 µl of sample for each replicate.
Control and test melanin values were calculated as the average of results from 4 wells, corrected for protein levels in the cultures. The percent reduction in melanin production was calculated for each compound concentration, setting the melanin production of control incubations (vehicle alone) at 100%. Compound concentrations causing > 20% loss of WST activity are considered toxic and not considered to be effective melanin inhibitors. A compound causing > 10% reduction of melanin production into the medium was considered to be an inhibitor. Table 1: B16 mouse melanoma cells assay results for compounds of the first aspect of the invention

Compound | inhibition at 10 µM (Melanoderms™) | inhibition at 1 µM (B16 mouse melanoma cells) | inhibition at 5 µM (B16 mouse melanoma cells) | inhibition at 5 µM (Melanoderms™)
N/C(=N\N=C\c1ccc(-c2ccncc2)cc1)NCc1ccc(O)cc1 [NC-0498, (E)-1-amino-N-(4-hydroxybenzyl)-1-{(2E)-[4-(pyridin-4-yl)benzylidene]hydrazinylidene}methanaminium iodide] | 53% | 0% | 33% | 
COC(=O)c1ccc(CN/C(N)=N/N=C/c2csc3ccccc23)cc1 [NC-0510, (E)-1-amino-1-[(2E)-(1-benzothiophen-3-ylmethylidene)hydrazinylidene]-N-[4-(methoxycarbonyl)benzyl]methanaminium iodide] | 19% | 17% | 29% | 18%
COC(=O)c1ccc(CN/C(N)=N/N=C/c2ccc3ccccc3n2)cc1 [NC-0511, (E)-1-amino-N-[4-(methoxycarbonyl)benzyl]-1-[(2E)-(quinolin-2-ylmethylidene)hydrazinylidene]methanaminium iodide] | 19% | 54% | 100% | 27%
N/C(=N\N=C\c1csc2ccccc12)NCc1ccc(Cl)c(Cl)c1 [NC-0515, (E)-1-amino-1-[(2E)-(1-benzothiophen-3-ylmethylidene)hydrazinylidene]-N-(3,4-dichlorobenzyl)methanaminium iodide] |  | 0% | 54% | 
N/C(=N\N=C\c1csc2ccccc12)NCc1ccc(F)cc1 [NC-0517, (E)-1-amino-1-[(2E)-(1-benzothiophen-3-ylmethylidene)hydrazinylidene]-N-(4-fluorobenzyl)methanaminium iodide] | 20% | 32% | 35% | 4%
N/C(=N\N=C\c1cc2ccccc2o1)NCc1ccccc1 [NC-0519, (E)-1-amino-1-[(2E)-(1-benzofuran-2-ylmethylidene)hydrazinylidene]-N-benzylmethanaminium iodide] | 47% | 71% | 71% | 40%
COC(=O)c1ccc(CN/C(N)=N/N=C/c2cc3ccccc3o2)cc1 [NC-0521, (E)-1-amino-1-[(2E)-(1-benzofuran-2-ylmethylidene)hydrazinylidene]-N-[4-(methoxycarbonyl)benzyl]methanaminium iodide] |  | 46% | 64% | 35%
COC(=O)c1ccc(CN/C(N)=N/N=C/c2cc3ccccc3s2)cc1 [NC-0522, (E)-1-amino-1-[(2E)-(1-benzothiophen-2-ylmethylidene)hydrazinylidene]-N-[4-(methoxycarbonyl)benzyl]methanaminium iodide] | 31% | 59% | 53% | 34%
COC(=O)c1cccc(CN/C(N)=N/N=C/c2csc3ccccc23)c1 [NC-0525, (E)-1-amino-1-[(2E)-(1-benzothiophen-3-ylmethylidene)hydrazinylidene]-N-[3-(methoxycarbonyl)benzyl]methanaminium iodide] |  | 18% | 100% | 
COc1ccc(CN/C(N)=N/N=C/c2csc3ccccc23)cc1 [NC-0528, (E)-1-amino-1-[(2E)-(1-benzothiophen-3-ylmethylidene)hydrazinylidene]-N-(4-methoxybenzyl)methanaminium iodide] |  | 3% | 73% | 
COc1ccc(CN/C(N)=N/N=C/c2cc3ccccc3o2)cc1 [NC-0531, (E)-1-amino-1-[(2E)-(1-benzofuran-2-ylmethylidene)hydrazinylidene]-N-(4-methoxybenzyl)methanaminium iodide] | 40% | 39% | 39% | 35%
Cc1ccc2[nH]c3c(c2c1)CCC/C3=N/N=C(\N)NCc1ccc(F)cc1 [NC-0536, (E)-1-amino-N-(4-fluorobenzyl)-1-{(2Z)-[6-methyl-2,3,4,9-tetrahydro-1H-carbazol-1-ylidene]hydrazinylidene}methanaminium iodide] |  | 24% | 8% | 
Cc1ccc2[nH]c3c(c2c1)CCC/C3=N/N=C(\N)NCc1c(Cl)cccc1Cl [NC-0537, (E)-1-amino-N-(2,6-dichlorobenzyl)-1-{(2Z)-[6-methyl-2,3,4,9-tetrahydro-1H-carbazol-1-ylidene]hydrazinylidene}methanaminium iodide] |  | 51% | 37% | 
